Source: US20040198811A1 (H. Lundbeck A/S, priority 2001, published 2004)

Tests used:
Assay type in all cases: in vivo
[1] = system: primary care patients with major depression disorder; assay: 8-week, double-blind, randomised, placebo-controlled, flexible-dose clinical study
Source text: (§1) This has i.a. been found in the Chronic Mild Stress model (Willner P., Psychopharmachology 1997, 134, 319-329).
A total of 471 patients were randomised into the study. The all-patient-treated set comprised 469 patients and the full-analysis set comprised 468 patients.
There was an approximately 3 to 1 ratio of women to men in each treatment group, and almost all patients were Caucasian. The mean age was 43 years (SD 11). At baseline, the mean MADRS total score was approximately 29 for the treatment group, which signifies moderate to severely ill patients.

[2] = fixed dose studies (MADRS rating scale and Clinical Global Impression); details: escitalopram in a dose of 10 mg
animal models = assay: Chronic Mild Stress model
Source text: as §1

[3] = pharmacological and clinical studies (effect of R-citalopram, potency versus racemate)
Source text: This may be shown in functional in-vivo pharmacological models and studies of 5-HT-reuptake effect and or in behaviour models, for example depression models.

[4] = Week 4, last observation carried forward, 10 mg escitalopram, 20 mg citalopram

(S)-1-[3-(dimethylamino)propyl]-1-4-fluorophenyl)-1,3-dihydro-5-isobenzofurancarbonitdile [escitalopram]
onset of effect ([1]; 10 mg escitalopram, 20 mg citalopram, versus placebo): showed effects after one week
therapeutic effect versus placebo on adjusted mean change in MADRS total score ([1]; Week 1 (p=0.023) to Week 4, observed cases): significantly superior therapeutic effect
CGI improvement and severity subscale versus placebo ([1]; Week 4, last observation carried forward): statistically significantly superior to placebo
adjusted mean change in MADRS total score versus placebo [1, 4]: 2.7 points
CGI improvement and severity subscale versus placebo ([1]; from Week 1 onwards, 4-week period, observed cases): significantly superior to placebo
effect as determined by MADRS rating scale and Clinical Global Impression (severity and improvement) [2]: at least same effect as citalopram in a dose of 40 mg
speed of response (animal models): faster response than citalopram-racemate
potency relative to the racemate ([3]; pharmacological and clinical studies): substantially more than two times as potent as the racemate

CN(C)CCC[C@]1(c2ccc(F)cc2)OCc2cc(C#N)ccc21 [R-citalopram, reference compound]
impact on the effect of escitalopram ([3]; in vivo): negative impact

CN(C)CCCC1(c2ccc(F)cc2)OCc2cc(C#N)ccc21 (racemic) [citalopram, reference compound]
adjusted mean change in MADRS total score versus placebo [1, 4]: 1.5 points
